According to patent US4210638A, “Antiviral composition and method of treating virus diseases” (PCR, Inc., priority 1978, dated 1980):

Assays:
man = conditions: extremely high concentrations; cited from earlier work
[1] = Incubation with acetate buffer (pH 4.5); type: physicochemical; conditions: 9 hours
Procedure: (§1) The results of incubation with HNO2 (pH 4.5) at room temperature were identical to those obtained above.

[2] = in vivo; cited from earlier work
cytidine deaminase = assay: Incubation with crude cytidine deaminase extract of HEP-2 cells (deamination); type: in vitro ADME, human; conditions: crude HEP-2 cytidine deaminase extract; Whatman 3MM chromatography
[3] = molecular target: T1, HSV-2 induced pyrimidine deoxyribonucleoside kinase (Human herpesvirus 2 strain HG52, UniProt P89446); assay: Phosphorylation by HSV-2 induced pyrimidine deoxyribonucleoside kinase; type: biochemical; conditions: for nmoles phosphorylated/60min.: solutions a, c, d adjusted to the same O.D.
T1 construct: preparation not described in the excerpts
T1 sequence (P89446 whole entry): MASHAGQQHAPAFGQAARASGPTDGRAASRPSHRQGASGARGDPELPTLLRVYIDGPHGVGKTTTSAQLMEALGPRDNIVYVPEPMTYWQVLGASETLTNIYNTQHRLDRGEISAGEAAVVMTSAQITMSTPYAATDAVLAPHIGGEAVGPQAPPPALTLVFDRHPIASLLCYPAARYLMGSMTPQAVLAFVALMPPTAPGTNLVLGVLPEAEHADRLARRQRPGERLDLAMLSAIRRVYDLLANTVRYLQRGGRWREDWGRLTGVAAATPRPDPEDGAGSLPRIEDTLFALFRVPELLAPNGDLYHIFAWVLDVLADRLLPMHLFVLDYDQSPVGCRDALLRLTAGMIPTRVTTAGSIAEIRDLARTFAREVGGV
Source text: The following spots were eluted into H2 O and scanned from 225 to 350 nm: (a) standard, (b) F3 methyl dC standard, […] spot after cytidine deaminase treatment of F3 dT and […] spot after cytidine deaminase treatment of F3 methyl dC. The u.v. absorption profile of F3 dT derived from deamination of F3 methyl dC is identical to that obtained from authentic F3 dT.
Solutions a, c, and d, above, were adjusted to the same O. D. and used as substrates for HSV-2 induced pyrimidine deoxyribonucleoside kinase. Results:
Stock solutions of F3 dT and F3 methyl dC were made up and adjusted to the same concentration as the F3 dT and F3 methyl dC purified chromatographically (solutions a and b, respectively). Usually, F3 methyl dC is phosphorylated 1/6 of the extent that F3 dT is phosphorylated. […] This experiment was performed twice. Results:
Values for chromatographically purified samples are probably lower due to impurities arising from non-acid washed paper.

HEp-2 cells = assay: Cytotoxicity vs HEp-2 cells (colony formation, % survival)
[4] = Incubation with HNO2 (pH 4.5) at room temperature; type: physicochemical
Procedure: as §1

uninfected cells = conditions: cited from earlier work; for toxicity towards uninfected cells compared with deoxyuridine compounds: Greer et al. 1975; for toxicity in culture: cell culture
[5] = system: HSV infections of the eye; conditions: cited from earlier work; for antiviral activity against HSV infections of the eye: Kaufman 1962 / Heidelberger
vaccinia = conditions: Shugar 1974; cited from earlier work
vesicular stomatitis = conditions: Shugar 1974; cited from earlier work
Herpes simplex = conditions: cited from earlier work
[6] = system: uridine and thymidine phosphorylase; conditions: cited from earlier work
human encephalitis = conditions: in vivo; cited from earlier work
HSV-2 = assay: Antiviral activity vs HSV-2 in HEp-2 cells (plaque assay in BHK cells); type: cell-based; conditions: 100 or 500 μg/ml
Procedure: The culture medium containing the nucleoside analogs at varying concentrations are added to the infected cultures. In the case of HEp-2 cells which contain high deaminase levels, H4 U is incorporated into the medium. At 48 hours, virus is harvested from the cultures by freezing and thawing. The virus produced from each culture is titred by plaque assay in BHK cells. By using this protocol the antiviral effectiveness of F3 methyl dC can be compared directly with the effectiveness of other antiviral agents. Furthermore, by including H4 U in the medium, the effectiveness of F3 methyl dC can be determined without deamination at the nucleoside level.

recurrent genital Herpes = conditions: in vivo; cited from earlier work
animal systems = conditions: usually must be administered very soon after infection; cited from earlier work

For `O=C1NC(O)CCN1[C@H]1C[C@H](O)[C@@H](CO)O1` (some centres unmarked) [2'-deoxytetrahydrouridine], the toxicity in man (man) is listed as “not toxic in man at extremely high concentrations”.

In the case of `O=c1[nH]c(=O)n([C@H]2C[C@H](O)[C@@H](CO)O2)cc1C(F)(F)F` [F3 dT, 5-trifluoromethyl-2'-deoxyuridine], the “modification in acetate buffer” value [1] is given as “did not lead to modification”, the “catabolism in the body” value [2] is given as “rapid catabolism” and the “chromatographic change on incubation with cytidine deaminase” value (cytidine deaminase) is given as “remained unchanged chromatographically”. For the same molecule, the “nmoles phosphorylated/4 hrs” value ([3]; chromatographically purified, value in parentheses (experiment performed twice)) was 0.19 nmoles/4 hrs, the “nmoles phosphorylated/4 hrs” value ([3]; chromatographically purified, value outside parentheses) was 0.16 nmoles/4 hrs and the “extent of phosphorylation compared with F3 dT” value ([3]; product of cytidine deaminase treatment of F3 methyl dC (d)) was “to the same extent as F3 dT”. For the same molecule, the “nmoles phosphorylated/60min.” value ([3]; listed as a) was 0.07 nmoles/60min, the “nmoles phosphorylated/60min.” value ([3]; listed as c) was 0.08 nmoles/60min and the “nmoles phosphorylated/60min.” value ([3]; listed as d) was 0.05 nmoles/60min. For the same molecule, the “nmoles phosphorylated/4 hrs” value ([3]; standard solutions, value in parentheses (experiment performed twice)) was 0.57 nmoles/4 hrs, the “nmoles phosphorylated/4 hrs” value ([3]; standard solutions, value outside parentheses) was 0.48 nmoles/4 hrs and the “cytotoxicity at concentrations with antiviral activity” value (HEp-2 cells; ±H4 U) was “extremely cytotoxic”. The “change on incubation with HNO2” value [4] was “remained unaltered”, the “toxicity towards uninfected cells” value (uninfected cells) was “exhibit toxicity towards uninfected cells” and the “antiviral activity against HSV infections of the eye” value (“antiviral activity … of the eye” below) [5] was “does exhibit antiviral activity against infections of the eye”.

For `CCc1cn([C@H]2C[C@H](O)[C@@H](CO)O2)c(=O)nc1N` [5-ethyl-2'-deoxycytidine], the activity against vaccinia (vaccinia) is given as “no activity”, the “activity against vesicular stomatitis” value (vesicular stomatitis) is given as “no activity” and the “antiviral activity against HSV infected cells” value (Herpes simplex; Shugar 1974) is given as “only a low antiviral activity”.

In the case of `Nc1nc(=O)n([C@H]2C[C@H](O)[C@@H](CO)O2)cc1I` [IdC, 5-iodo-2'-deoxycytidine], the “toxicity towards uninfected cells compared with deoxyuridine compounds” value (uninfected cells) is listed as “substantially less toxic towards uninfected cells” and the “treatment of Herpes Keratitis in humans compared with IdU” value ([5]; humans, Kurimoto et al. 1969) is listed as “more effective”.

For `Cc1cn([C@H]2C[C@H](O)[C@@H](CO)O2)c(=O)nc1N` [5-methyl-2'-deoxycytidine], the “antiviral activity against HSV infected cells compared with 5-methyl-2'-deoxyuridine” value (Herpes simplex; Lin and Prusoff 1977) is given as “less effective”.

In the case of `CNc1cn([C@H]2C[C@H](O)[C@@H](CO)O2)c(=O)[nH]c1=O` [5-methyl amino-2'-deoxyuridine], the toxicity in culture (uninfected cells) is given as “non-toxic in culture” and the “substrate for catabolic enzymes uridine and thymidine phosphorylase” value (“substrate” for short) [6] is given as “substrates for the catabolic enzymes”.

In the case of `CCCc1cn([C@H]2C[C@H](O)[C@@H](CO)O2)c(=O)[nH]c1=O` [5-propyl-2'-deoxyuridine], the “antiviral activity against Herpes simplex in cell culture” value (“antiviral activity … in cell culture” for short) (Herpes simplex) is listed as “do exhibit antiviral activity”, the toxicity in culture (uninfected cells) is listed as “non-toxic in culture” and the “substrate” value [6] is listed as “substrates for the catabolic enzymes”.

For `O=c1[nH]c(=O)n([C@H]2C[C@H](O)[C@@H](CO)O2)cc1F` [5-fluorodeoxyuridine], the “antiviral activity … of the eye” value [5] is listed as “very little antiviral activity”.

For `Nc1nc(=O)n([C@H]2C[C@H](O)[C@@H](CO)O2)cc1Br` [BrdC, 5-bromo-2'-deoxycytidine], the “toxicity towards uninfected cells compared with deoxyuridine compounds” value (uninfected cells) is listed as “substantially less toxic towards uninfected cells”.

For `C=CCc1cn([C@H]2C[C@H](O)[C@@H](CO)O2)c(=O)[nH]c1=O` [5-allyl-2'-deoxyuridine], the “antiviral activity … in cell culture” value (Herpes simplex) is listed as “do exhibit antiviral activity”, the toxicity in culture (uninfected cells) is listed as “non-toxic in culture” and the “substrate” value [6] is listed as “substrates for the catabolic enzymes”.

In the case of `O=c1[nH]c(=O)n([C@H]2C[C@H](O)[C@@H](CO)O2)cc1-c1ccccc1` [5-phenyl-2'-deoxyuridine], the “antiviral activity … in cell culture” value (Herpes simplex) is listed as “do exhibit antiviral activity”, the toxicity in culture (uninfected cells) is listed as “non-toxic in culture” and the “substrate” value [6] is listed as “substrates for the catabolic enzymes”.

In the case of `CCc1cn([C@H]2C[C@H](O)[C@@H](CO)O2)c(=O)[nH]c1=O` [5-ethyl-2'-deoxyuridine], the “antiviral activity … in cell culture” value (Herpes simplex) is given as “do exhibit antiviral activity”, the toxicity in culture (uninfected cells) is given as “non-toxic in culture” and the “substrate” value [6] is given as “substrates for the catabolic enzymes”.

For `O=c1[nH]c(=O)n([C@H]2C[C@H](O)[C@@H](CO)O2)cc1I` [IdU, 5-iodo-2'-deoxyuridine], the “effectiveness in human Herpes encephalitis” value (human encephalitis) is given as “ineffectiveness”, the “catabolism in the body” value [2] is given as “rapid catabolism” and the “toxicity towards uninfected cells” value (uninfected cells) is given as “exhibit toxicity towards uninfected cells”. The “antiviral activity … of the eye” value [5] was “exhibits antiviral activity against HSV infections of the eye” and the “effectiveness against Herpes Keratitis compared with F3 dT” value ([5]; in vivo) was “less effective than F3 dT”.

For `O=C1NC(O)CCN1[C@@H]1O[C@H](CO)[C@@H](O)[C@H]1O` (some centres unmarked) [H4 U, tetrahydrouridine, reference compound], the “antiviral activity of H4 U” value (HSV-2) is given as “does not display any antiviral activity”, the toxicity in man (man) is given as “not toxic in man at extremely high concentrations” and the “cytotoxic activity of H4 U” value (HEp-2 cells; 100 or 500 μg/ml) is given as “does not display any cytotoxic activity”.

For `N#CSc1cn([C@H]2C[C@H](O)[C@@H](CO)O2)c(=O)[nH]c1=O` [5-thiocyanato-2'-deoxyuridine], the “antiviral activity … in cell culture” value (Herpes simplex) is given as “do exhibit antiviral activity”, the toxicity in culture (uninfected cells) is given as “non-toxic in culture” and the “substrate” value [6] is given as “substrates for the catabolic enzymes”.

For `Nc1ncnc2c1ncn2[C@@H]1O[C@H](CO)[C@@H](O)[C@@H]1O` [Adenine arabinoside], the “incidence of death due to human encephalitis” value (human encephalitis) is listed as “decrease the incidence of death” and the “effect against recurrent genital Herpes” value (recurrent genital Herpes) is listed as “neither effective against recurrent genital Herpes”.

For `O=C(O)CP(=O)(O)O` [Phosphonacetic acid], the “efficacy in animal systems” value (animal systems) is listed as “effective in animal systems”.

In the case of `Nc1ncnc2c1ncn2[C@@H]1O[C@H](COP(=O)(O)O)[C@@H](O)[C@@H]1O` [ara-AMP], the “effect against recurrent genital Herpes” value (recurrent genital Herpes) is given as “neither effective against recurrent genital Herpes”.
